Assay results published in PubChem BioAssay AID248 (DTP/NCI, 2004).
Inconclusive results and toxic doses are left out. Rule as the data show it: active = T/C of 150% or more; inactive = T/C below 125%.

Tested on: L1210 leukemia ip in BDF1 mice, survival T/C
Test: NCI In Vivo Anticancer Drug Screen. Data for tumor model L1210 Leukemia (intraperitoneal) in B6D2F1 (BDF1) mice
Settings: endpoint: mean survival time, higher = longer survival
Outline: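 Tumor was transplanted into mice, which were then dosed with test compound or vehicle alone. Survival was recorded for each group, and the treated figure was expressed relative to the control figure.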

[1] = dose: 100.0 mg/kg/injection, schedule: Q01DX001 (ip), vehicle: saline
[2] = dose: 200.0 mg/kg/injection, schedule: Q01DX001 (ip), vehicle: saline
[3] = dose: 100.0 mg/kg/injection, schedule: Q04DX003 (ip), vehicle: Klucel (hydroxypropylcellulose) (HPC)
[4] = dose: 200.0 mg/kg/injection, schedule: Q04DX003 (ip), vehicle: Klucel (hydroxypropylcellulose) (HPC)
[5] = dose: 400.0 mg/kg/injection, schedule: Q04DX003 (ip), vehicle: Klucel (hydroxypropylcellulose) (HPC)
[6] = dose: 50.0 mg/kg/injection, schedule: Q04DX003 (ip), vehicle: saline
[7] = dose: 100.0 mg/kg/injection, schedule: Q01DX009 (ip), vehicle: saline
[8] = dose: 100.0 mg/kg/injection, schedule: Q04DX003 (ip), vehicle: saline
[9] = dose: 200.0 mg/kg/injection, schedule: Q01DX009 (ip), vehicle: saline
[10] = dose: 200.0 mg/kg/injection, schedule: Q04DX003 (ip), vehicle: saline
[11] = dose: 100.0 mg/kg/injection, schedule: Q01DX001 (ip), vehicle: Klucel (hydroxypropylcellulose) (HPC)
[12] = dose: 200.0 mg/kg/injection, schedule: Q01DX001 (ip), vehicle: Klucel (hydroxypropylcellulose) (HPC)
[13] = dose: 400.0 mg/kg/injection, schedule: Q01DX001 (ip), vehicle: Klucel (hydroxypropylcellulose) (HPC)
[14] = dose: 50.0 mg/kg/injection, schedule: Q01DX009 (ip), vehicle: saline with Tween-80
[15] = dose: 100.0 mg/kg/injection, schedule: Q01DX009 (ip), vehicle: saline with Tween-80
[16] = dose: 200.0 mg/kg/injection, schedule: Q01DX009 (ip), vehicle: saline with Tween-80
[17] = dose: 100.0 mg/kg/injection, schedule: Q04DX003 (ip), vehicle: saline with Tween-80
[18] = dose: 200.0 mg/kg/injection, schedule: Q04DX003 (ip), vehicle: saline with Tween-80
[19] = dose: 400.0 mg/kg/injection, schedule: Q04DX003 (ip), vehicle: saline with Tween-80
[20] = dose: 100.0 mg/kg/injection, schedule: Q01DX009 (ip), vehicle: Klucel (hydroxypropylcellulose) (HPC)
[21] = dose: 200.0 mg/kg/injection, schedule: Q01DX009 (ip), vehicle: Klucel (hydroxypropylcellulose) (HPC)
[22] = dose: 400.0 mg/kg/injection, schedule: Q01DX009 (ip), vehicle: Klucel (hydroxypropylcellulose) (HPC)
[23] = dose: 100.0 mg/kg/injection, schedule: Q04DX002 (ip), vehicle: Klucel (hydroxypropylcellulose) (HPC)
[24] = dose: 200.0 mg/kg/injection, schedule: Q04DX002 (ip), vehicle: Klucel (hydroxypropylcellulose) (HPC)
[25] = dose: 400.0 mg/kg/injection, schedule: Q04DX002 (ip), vehicle: Klucel (hydroxypropylcellulose) (HPC)

Measured: T/C

CCOc1ccc(C(=O)CCN2CCOCC2)cc1
inactive: [1] 100 % of control | [2] 118 % of control

CCC(=O)C(=O)Cc1cc[n+]([O-])c2ccccc12
inactive: [3] 102 % of control | [4] 97 % of control | [5] 113 % of control

COC1C(OC(=O)/C=C/C=C/C=C/C=C/C(=O)O)CCC2(CO2)C1C1(C)OC1CC=C(C)C (configuration not stated)
inactive: dose: 2.5 mg/kg/injection, schedule: Q01DX Z (ip), vehicle: methylcellulose (MC) 115 % of control | dose: 5.0 mg/kg/injection, schedule: Q01DX Z (ip), vehicle: methylcellulose (MC) 110 % of control | dose: 10.0 mg/kg/injection, schedule: Q01DX Z (ip), vehicle: methylcellulose (MC) 115 % of control | dose: 10.0 mg/kg/injection, schedule: Q01DX Z (ip), vehicle: saline 109 % of control | dose: 20.0 mg/kg/injection, schedule: Q01DX Z (ip), vehicle: methylcellulose (MC) 118 % of control | dose: 20.0 mg/kg/injection, schedule: Q01DX Z (ip), vehicle: saline 115 % of control | dose: 40.0 mg/kg/injection, schedule: Q01DX Z (ip), vehicle: methylcellulose (MC) 121 % of control | dose: 40.0 mg/kg/injection, schedule: Q01DX Z (ip), vehicle: saline 123 % of control | dose: 50.0 mg/kg/injection, schedule: Q01DX009 (ip), vehicle: saline 101 % of control | [6] 116 % of control | dose: 80.0 mg/kg/injection, schedule: Q01DX Z (ip), vehicle: saline 120 % of control | [1] 93 % of control | [7] 101 % of control | [8] 93 % of control | [2] 93 % of control | [9] 106 % of control | [10] 98 % of control

Cc1cc(N(C)C)ccc1N=Nc1ccccc1
inactive: dose: 50.0 mg/kg/injection, schedule: Q01DX001 (ip), vehicle: carboxymethylcellulose (CMC) 102 % of control | dose: 100.0 mg/kg/injection, schedule: Q01DX001 (ip), vehicle: carboxymethylcellulose (CMC) 102 % of control | dose: 200.0 mg/kg/injection, schedule: Q01DX001 (ip), vehicle: carboxymethylcellulose (CMC) 107 % of control | dose: 400.0 mg/kg/injection, schedule: Q01DX001 (ip), vehicle: carboxymethylcellulose (CMC) 96 % of control

CCOc1ccc(-n2cnc3ccccc3c2=O)cc1CN(CCCl)CCCl
inactive: [11] 100 % of control | [12] 102 % of control | [13] 100 % of control

CC(C)(C)C(C)(O)C(=O)O (configuration not stated)
inactive: [14] 93 % of control | [15] 97 % of control | [16] 93 % of control

Nc1ccc(Cl)cc1Br
inactive: dose: 50.0 mg/kg/injection, schedule: Q01DX009 (ip), vehicle: acetone 95 % of control | dose: 100.0 mg/kg/injection, schedule: Q01DX009 (ip), vehicle: acetone 92 % of control | dose: 100.0 mg/kg/injection, schedule: Q04DX003 (ip), vehicle: acetone 96 % of control | dose: 200.0 mg/kg/injection, schedule: Q01DX009 (ip), vehicle: acetone 90 % of control | dose: 200.0 mg/kg/injection, schedule: Q04DX003 (ip), vehicle: acetone 100 % of control | dose: 400.0 mg/kg/injection, schedule: Q04DX003 (ip), vehicle: acetone 96 % of control

NC(=O)NC1CCCCCC1
inactive: [17] 94 % of control | [18] 91 % of control | [19] 91 % of control

CCOc1ccccc1C(N)=O
inactive: [7] 96 % of control | dose: 100.0 mg/kg/injection, schedule: Q04DX003 (ip), vehicle: other 96 % of control | [9] 107 % of control | dose: 200.0 mg/kg/injection, schedule: Q04DX003 (ip), vehicle: other 104 % of control | dose: 400.0 mg/kg/injection, schedule: Q01DX009 (ip), vehicle: saline 102 % of control | dose: 400.0 mg/kg/injection, schedule: Q04DX003 (ip), vehicle: other 105 % of control

c1ccc(C2=NCCN=C2c2ccccc2)cc1
inactive: [3] 97 % of control | [4] 97 % of control | [5] 93 % of control

CCOC(=O)NC(CI)c1ccccc1 (configuration not stated)
inactive: [14] 96 % of control | [15] 88 % of control | [16] 96 % of control

c1ccc2c[n+](CC[n+]3ccc4ccccc4c3)ccc2c1
inactive: dose: 75.0 mg/kg/injection, schedule: Q04DX003 (ip), vehicle: saline 98 % of control

CC(=O)Oc1c(OC(C)=O)c(-c2c(C)cc(C)c(Br)c2C)c(OC(C)=O)c(OC(C)=O)c1-c1c(C)cc(C)c(Br)c1C
inactive: [20] 103 % of control | [21] 97 % of control | [22] 103 % of control

C=CCSc1cccc(Cl)c1
inactive: [1] 101 % of control | [2] 96 % of control

c1nc(NCC2CC2)c2[nH]cnc2n1
inactive: [1] 97 % of control | [2] 97 % of control

CCC[n+]1ccc(C#N)cc1
inactive: dose: 75.0 mg/kg/injection, schedule: Q01DX001 (ip), vehicle: saline 106 % of control | dose: 150.0 mg/kg/injection, schedule: Q01DX001 (ip), vehicle: saline 89 % of control

CC1(C)[C@@H]2CC[C@@]1(CS(=O)(=O)O)C(=O)C2
inactive: dose: 100.0 mg/kg/injection, schedule: Q04DX002 (ip), vehicle: other 95 % of control | dose: 200.0 mg/kg/injection, schedule: Q04DX002 (ip), vehicle: other 92 % of control

O=C(O)CC(c1ccccc1)C(Nc1ccc2ccccc2c1)C(=O)O (configuration not stated)
inactive: [23] 89 % of control | [24] 100 % of control | [25] 96 % of control

Nc1ccc(CC(=O)O)cc1
inactive: [11] 97 % of control | [12] 101 % of control | [13] 88 % of control

C=CCOC(=O)C1CC(C(=O)OCC=C)C(C(=O)OCC=C)C1C(=O)OCC=C (configuration not stated)
inactive: [20] 100 % of control | [3] 91 % of control | [21] 92 % of control | [4] 100 % of control | [22] 92 % of control | [5] 96 % of control

CCN(CC)c1ccc(N=C2C=C(C(=O)Nc3cccc(Cl)c3)C(=O)c3ccccc32)c(C)c1
inactive: dose: 100.0 mg/kg/injection, schedule: Q01DX001 (ip), vehicle: other 92 % of control | dose: 200.0 mg/kg/injection, schedule: Q01DX001 (ip), vehicle: other 92 % of control | dose: 400.0 mg/kg/injection, schedule: Q01DX001 (ip), vehicle: other 96 % of control

COc1ccc(CC(=O)NNC(=O)C2(C(C)C)OC3(O)CCCCN3C2=O)cc1OC (configuration not stated)
inactive: dose: 25.0 mg/kg/injection, schedule: Q04DX003 (ip), vehicle: saline 101 % of control | [6] 92 % of control | [8] 106 % of control | [10] 92 % of control

CCCCOP(=O)(/C=C/c1cccs1)OCCCC
inactive: [17] 100 % of control | [18] 94 % of control

Cc1ccc(S(=O)(=O)OC2C(SCc3ccccc3)OCC(OC(=O)c3ccccc3)C2OC(=O)c2ccccc2)cc1 (configuration not stated)
inactive: [1] 93 % of control | [2] 88 % of control | dose: 400.0 mg/kg/injection, schedule: Q01DX001 (ip), vehicle: saline 88 % of control

CC(=O)OC(C)c1ccccc1 (configuration not stated)
inactive: [20] 112 % of control | [21] 106 % of control | [22] 101 % of control

O=S(=O)(Nc1nccs1)c1ccc(N(CCCl)CCCl)cc1
inactive: dose: 50.0 mg/kg/injection, schedule: Q01DX009 (ip), vehicle: Klucel (hydroxypropylcellulose) (HPC) 116 % of control

COc1ccc(OCC(=O)N2CCCC2)cc1
inactive: [23] 103 % of control | [24] 96 % of control | [25] 96 % of control

C#CC1(OC(=O)Nc2cc3ccccc3o2)CCCCC1
inactive: [17] 90 % of control | [18] 95 % of control | [19] 92 % of control

O=C(O)C1C(C2c3ccc(O)cc3Oc3cc(O)ccc32)C2(Cl)C(Cl)=C(Cl)C1(Cl)C2(Cl)Cl (configuration not stated)
inactive: [8] 100 % of control | [10] 93 % of control | dose: 400.0 mg/kg/injection, schedule: Q04DX003 (ip), vehicle: saline 94 % of control
